Measurements taken from article PMC7429848, “XJB-5-131 inhibited ferroptosis in tubular epithelial cells after ischemia−reperfusion injury” (Cell Death & Disease, 2020).

Experiments:
ferroptosis in TECs = assay: Renal I/R model: ferroptosis readouts (mitochondrial morphology, GSH-Px, MDA, 4-HNE, GPX4, ACSL4); assay type: in vivo; conditions: mice, unilateral I/R, 10 mg/kg i.p.
Protocol: (§1) After a minimum of 7 days of acclimation, the mice were anesthetized with a 1% sodium pentobarbital solution (6 mL/kg) by intraperitoneal injection and then placed in a prone position to maintain their body temperature at 36.8–37.2 °C during surgery. After a unilateral dorsal incision to expose the kidneys, the renal artery was occluded using a microvascular clamp (RoBoz Surgical Instrument Co, Gaithersburg, MD, USA) for 30 min. After that, the clamps were removed, and the animals were allowed to recover with free access to food and water.
(§2) To study the effects of XJB-5-131 on I/R injury, the mice were randomly allocated into the Vehi group and XJB group. The mice were injected intraperitoneally (i.p.) with XJB-5-131 (10 mg/kg) or the respective control 30 min prior to ischemia and for 3 consecutive days after surgery.
The renal cortices were cut into small pieces (1 mm^3) and fixed with 2.5% glutaraldehyde. Then the samples were dehydrated and embedded. Ultra-thin sections were stained and observed with a transmission electron microscope (Tecnai G^2 20 TWIN, FEI, USA).
(§3) Paraffin-embedded renal sections (4 μm) were deparaffinized in xylene, rehydrated in graded alcohol and blocked with 10% goat serum for 30 min. Mouse monoclonal anti-GSDMD (1:50, Santa), mouse monoclonal anti-4-HNE (1:100, R&D), rabbit polyclonal anti-MLKL, goat polyclonal anti-KIM-1 (1:800, R&D), rabbit polyclonal anti-Ki67 (1:100, Abcam), rabbit polyclonal anti-ACSL4 (1:200, Abcam), rabbit polyclonal anti-CD3 (1:100, Dako), rabbit polyclonal anti-ly6G (1:100, Abcam), rat polyclonal anti-F4/80 (1:50, Abcam), and rabbit polyclonal anti-Sox9 (1:100, Abcam) primary antibodies were incubated at 4 °C overnight and subsequently visualized with HRP-conjugated secondary antibody for IHC and fluorescently labeled secondary antibodies for IF. Staining was carefully quantified in each slide by capturing 15 randomly chosen fields in a blind manner, and the data were analyzed using Image Pro Plus software (Media Cybernetics, USA).
The levels of GSH-Px in kidneys were determined using GSH-Px assay kit, respectively (Beyotime China) in line with the manufacturer’s instructions.
Quantification of MDA levels in kidney tissue after I/R or sham operation was performed by using an MDA assay kit (Beyotime).
(§4) Renal tissues were lysed in RIPA lysis buffer containing protease inhibitor. Equal amounts of proteins (50 μg) were loaded and separated by 10% SDS-PAGE. The proteins were transferred onto polyvinylidene fluoride membranes (Millipore, USA). The membranes were blocked with 5% skimmed milk in Tris Buffered saline Tween (TBST) for 1 h at room temperature and were then incubated with appropriate primary antibodies against GPX4 (1:10000, Abcam), ACSL4 (1:10000, Abcam, UK), MLKL (1:1000, Abgent), p-MLKL (1:1000, Abcam), RIPK3 (1:1000, ABclonal), p-RIPK3 (1:1000, Abcam), GSDMD (1:1000, Santa) and GAPDH (1:5000, ABclonal) at 4 °C overnight. The blots were washed with TBST for 5 min and incubated with HRP-conjugated secondary antibodies (1:5000; ABclonal) for 1 h. After washing with TBST, the blots were visualized by the enhanced chemiluminescence method (ECL, Bio-Rad). The relative intensity of the target band was normalized to the corresponding loading control intensity and quantified by using ImageJ (NIH, USA).

HT-1080 cells = test system: HT-1080 cells; design: method as in PMID 27725964; conditions: cited from earlier work
[1] = design: method as in PMID 26415224; conditions: cited from earlier work
renal I/R injury [2] = assay: Renal I/R model: kidney injury and TEC repair (gross appearance, PAS, KIM-1, Ki67, Sox9); assay type: in vivo; conditions: mice
Protocol: as §1, §2
Paraffin-embedded renal sections (4 μm) were subjected to PAS staining to detect morphological changes in the cortex and medulla, and were scored in a blinded fashion using a semiquantitative design as previously reported.
as §3

RIPK3, MLKL, GSDMD = assay: Renal I/R model: necroptosis and pyroptosis markers by western blot; assay type: in vivo; conditions: mice, unilateral I/R, with or without XJB-5-131
Protocol: as §1, §2, §4

renal I/R injury [3] = assay: Renal I/R model: intrarenal inflammatory cell infiltration and proinflammatory cytokine mRNA; assay type: in vivo; conditions: mice, unilateral I/R, 10 mg/kg i.p., vs I/R group
Protocol: as §1, §2, §3
Total RNA was extracted from kidney tissue using TRIzol reagent (Takara, Japan). Real-time PCR was carried out using a LightCycler 480 system (Roche, Pleasanton, CA, USA). Relative mRNA for RANTES, MCP-1, IL-6 and GAPDH was quantified in triplicate by SYBR Green RT-PCR.

[4] = In vivo-based pharmacokinetic model, LC-MS/MS of plasma and tissue homogenates; design: species or system mice; conditions: for AUC0–6 h / AUC0–∞ / MRT0-6h / MRT0–∞ / t1/2 / tmax / Cmax: 3 mg/kg i.v. bolus
Protocol: (§5) The mice were sacrificed at 0.25, 0.5, 1, 2, 4 and 6 h after i.v. bolus administration of XJB-5-131. […] The concentration of XJB-5-131 in the liver was not obtained. The half-life (t1/2) was approximately 2 h. The area under the concentration–time curve (AUC0−6 h) of plasma was 322.7 µg·h/ml. The AUC0−6 h in the kidney was approximately […] compared with that of the AUC0−6 h in the brain (234.7 µg·h/g versus 4.1 µg·h/g). […] Moreover, the concentration in the kidney was almost close to the plasma concentration and lasted much longer, which predicted the therapeutic value of XJB-5-131 in kidney diseases. Next, we intravenously injected 3 mg/kg BODIPY-FL-XJB-5-131 into mice to explore the distribution of XJB-5-131 in the kidney, and whole-body fluorescence was analyzed at 0 and 30 min after injection.
Mice were injected with 3 mg/kg XJB-5-131 and were sacrificed at 0.25, 0.5, 1, 2, 4 and 6 h after injection. Plasma, kidney, liver and brain were collected to assess the XJB-5-131 concentration by LC-MS/MS. For plasma samples, an aliquot of 8 µL was protein precipitated with 160 µL IS, and the mixture was vortex-mixed and centrifuged at 12,000 × g for 15 min at 4 °C. Seventy microliters of supernatant was transferred to a 96-well plate and centrifuged for 5 min at 3220 × g and 4 °C, and then 6 µL of supernatant was directly injected for LC-MS/MS analysis. For tissue samples, tissue homogenates (kidney, brain and liver) were prepared by homogenizing tissue with threefold volume of homogenization solution (MeOH/15 mM PBS = 1:2). An aliquot of 20 µL was protein precipitated with 400 µL IS, and the mixture was vortex-mixed and centrifuged at 12,000 rpm for 15 min at 4 °C. Seventy microliters of supernatant was transferred to a 96-well plate and centrifuged for 5 min at 3220 × g and 4 °C, and then 6 µL of supernatant was directly injected for LC-MS/MS analysis.

[5] = Whole-body and organ fluorescence imaging and kidney frozen sections after BODIPY-FL-XJB-5-131 injection; assay type: in vivo; conditions: mice, BODIPY-FL-labeled XJB-5-131 i.v.
Protocol: as §5
Fig. 5 Pharmacokinetics and distribution analysis of XJB-5-131 in vivo and in vitro. a The structure of XJB-5-131. b The tissue concentrations of XJB-5-131 in mice. Mice were injected with XJB-5-131 and sacrificed after 0.25, 0.5, 1, 2, 4 and 6 h. Plasma, kidney, liver and brain were collected for in vivo-based pharmacokinetic assays by LC-MS/MS. […] Whole-body fluorescence imaging was performed at 0 and 30 min, and the fluorescence intensity of various organs (heart, kidney, liver and brain) was measured after 30 min. […]

[6] = stated without reference; cited from earlier work
[7] = unilateral I/R, 10 mg/kg i.p., day 3, vs I/R group

## CC(C)C[C@@H](/C=C/[C@H](Cc1ccccc1)C(=O)N1CCC[C@H]1C(=O)N[C@H](C(=O)N[C@@H](CCCNC(=O)OCc1ccccc1)C(=O)NC1CC(C)(C)N([O])C(C)(C)C1)C(C)C)NC(=O)OC(C)(C)C [XJB-5-131]
Ferroptosis in TECs
  4-HNE staining: less accumulation of lipid peroxidation
  I/R-induced increase in ACSL4 expression (western blot): inhibited
  renal GPX4 expression (western blot): significantly improved
  resistance of mitochondria in TECs to I/R injury (electron microscopy): increased resistance
Ferroptosis in TECs; day 3
  GSH-Px level in kidney: increased levels
  MDA level in kidney: decreased levels
HT-1080 cells
  effect on ferroptosis: anti-ferroptotic effects
[1]
  conversion into XJB-hydroxylamine in situ: easily converted into XJB-hydroxylamine
Renal I/R injury [2]; I/R, day 3, PAS staining
  benefit at 10mg/kg versus 2.5mg/kg or 20mg/kg: better beneficial than other doses
Renal I/R injury [2]; I/R, day 3, vs I/R+Vehicle
  kidney injuries and casts (PAS staining): ameliorated
Renal I/R injury [2]; [7]
  KIM-1 expression (immunofluorescent staining): decreased
  Sox9 in TECs: dramatically activated
  congestion area at the junction of cortex and medulla: reduced
  loss of tubules (PAS tubular damage): alleviated
  number of Ki67-positive nuclei in TECs: much higher number
  ratio of injured kidney weight to body weight: decreased
RIPK3, MLKL, GSDMD
  cleavage of GSDMD (GSDMD-N): no statistically significant difference
  expression of phosphorylated MLKL: no difference
  expression of phosphorylated RIPK3: no difference
Renal I/R injury [3]
  IL-6 mRNA expression in kidney: suppressed
  MCP-1 mRNA expression in kidney: suppressed
  RANTES mRNA expression in kidney: suppressed
  infiltration of inflammatory cells in the kidney (ly6G, CD3, F4/80 positive cells): reduced
[4]; mice, brain
  AUC0–6 h: 4052 ng·h/g
  AUC0–∞: 4859 ng·h/g
  MRT0-6h: 3.14 h
  MRT0–∞: 1.98 h
  t1/2: 2.07 h
  tmax: 0.25 h
[4]; mice, brain and plasma
  Cmax: 2353 ng/g
[4]; mice, kidney
  AUC0–6 h: 234,683 ng·h/g
  AUC0–∞: 255,150 ng·h/g
  Cmax: 261,067 ng/g
  MRT0-6h: 2.05 h
  MRT0–∞: 1.42 h
  t1/2: 2.23 h
  tmax: 0.25 h
[4]; mice, plasma
  AUC0–6 h: 322,745 ng·h/mL
  AUC0–∞: 364,783 ng·h/mL
  Cmax: 186,667 ng/mL
  MRT0-6h: 2.65 h
  t1/2: 1.77 h
  tmax: 0.25 h
[4]; mice, i.v.
  half-life (t1/2): approximately 2 h
  plasma-tissue drug transfer: fast
[4]; mice, i.v., in vivo PK
  plasma stability: superior plasma stability
[4]; mice, i.v., kidney
  AUC0−6 h: 234.7 µg·h/g
  calculated maximal concentration (Cmax): 261.1 µg/g
[4]; mice, i.v., kidney and brain
  AUC0−6 h: 4.1 µg·h/g
[4]; mice, i.v., plasma
  AUC0−6 h: 322.7 µg·h/mL
  calculated maximal concentration (Cmax): 186.7 µg/mL
[4]; mice, i.v., plasma, kidney and brain
  time of Cmax after vein injection: 15 min
[4]; mouse liver homogenate, not detected by LC-MS/MS
  stability in liver homogenate: unstable
[5]
  cell type distribution in the kidney (fluorescence microscopy of frozen sections): majority of XJB-5-131-positive cells were kidney TECs

## CCOC(=O)c1ccc(NC2CCCCC2)c(N)c1 [Fer-1, ferrostatin-1]
[6]
  stability in plasma: poor
